In one test the target is selected RNA motifs. As to the kind of experiment: In solution fluorescence-based binding affinity measurement. Conditions: read-out: Average Kd of Selected RNA Binders. As for the experimental part:
Bound RNA motifs for each compound were harvested from the array surface, amplified, and identified by using high throughput sequencing (RNA-seq). Highly abundant RNAs in the sequencing data were then subjected to binding measurements. Typically, those RNAs that were highly enriched bound to the small molecules with affinities (Kds) that ranged from 1 to 10 μM (FIG. 2 and Table 1) while binding to the starting libraries was not saturable. These affinities are promising for binding RNA, as it has been difficult to acquire low micromolar affinity with compounds of this low molecular weight. In fact, RNAs that have undergone Darwinian evolution to bind small molecules, namely riboswitches, often bind their cognate ligand at […] concentrations;^30-33 bioactive compounds that mimic riboswitch ligands bind with similar affinities.^30,34
(§1) Binding Affinity Measurements: An in solution, fluorescence-based assay was used to determine binding affinities by monitoring the change in fluorescence intensity of 1-FL (or 2-FL/3-FL/4-FL) as a function of RNA concentration as described previously.^18 Briefly, the RNA of interest was folded in 1× Folding Buffer (8 mM Na2HPO4, pH 7.0, 185 mM NaCl and 1 mM EDTA) by heating at 60° C. for 5 min followed by slowly cooling to room temperature on the bench top. Then, the FL-conjugated compound was added into the RNA solution to a final concentration of 100 nM. Serial dilutions were then completed using 1× Folding Buffer supplemented with 100 nM FL-conjugated compound. The solutions were incubated at room temperature for 30 min and then transferred to a well of a black 384-well plate. Fluorescence intensity was measured using a Bio-Tek FL×800 plate reader with an excitation wavelength of 485/20 nm and an emission wavelength of 528/20 nm. The change in fluorescence intensity as a function of the concentration of RNA was fit to equation 3:^9 I=I0+0.5 Δε{([FL]0+[RNA]0 +Kd)−(([FL]0+[RNA]0+Kd)^2−4[FL]0[RNA]0)^1/2} (3) where I is the observed fluorescence intensity; I0 is the fluorescence intensity in the absence of RNA; Δε is the difference between the fluorescence intensity in the absence of RNA and in the presence of infinite RNA concentration; [FL]0 is the concentration of compound; [RNA]0 is the concentration of the selected RNA; and Kd is the dissociation constant.

In another test the target is AT-rich DNA hairpin. The description is as above.
Source text: It has been difficult to identify compounds that are heterocyclic in nature that selectively recognize RNA over DNA.^5 Thus, to further gain insight into the selectivity of our RNA motif-small molecule interactions, we compared the measured affinities for selected RNA motifs to the affinities of the ligands for an AT-rich DNA hairpin, a common target of small molecules similar to those shown in FIG. 1. […] This alteration reduces DNA affinity because key stacking and hydrogen bonding interactions are not possible. […] Thus, the interactions selected via 2DCS are RNA-selective.
as §1

Molecules are shown by their SMILES.

By Kd is commonly meant the free concentration of one partner at which half of the binding sites on the other are occupied at equilibrium, for simple one-to-one binding.

Regarding `CN1CCN(c2ccc(-c3ccc4nc(-c5ccc(OCCCC(=O)NCCCN=[N+]=[N-])cc5)[nH]c4c3)cc2)CC1` [Compound 1], the Kd was 16 ± 9 µM on selected RNA motifs and greater than 100 µM at AT-rich DNA hairpin.

Take `Cc1cc(-c2nc3ccc(-c4ccc(N5CCN(C)CC5)cc4)cc3[nH]2)cc(C)c1OCCCC(=O)NCCCN=[N+]=[N-]` [Compound 2]: the results for the equilibrium dissociation constant (Kd) on selected RNA motifs and at AT-rich DNA hairpin were 7 ± 5 µM and greater than 100 µM, respectively.

Take `CC(C)c1cc(-c2nc3ccc(-c4ccc(N5CCN(C)CC5)cc4)cc3[nH]2)cc(C(C)C)c1OCCCC(=O)NCCCN=[N+]=[N-]` [Compound 3]: the Kd was 8 ± 4 µM on selected RNA motifs and greater than 100 µM at AT-rich DNA hairpin.

Source of the values: US12527788B2, “Defining RNA-small molecule affinity landscapes enables design of a small molecule inhibitor of an oncogenic non-coding RNA” (University of Florida Research Foundation, Incorporated, priority 2017, dated 2026).
